Results published in patent US20250129054A1 (Terran Biosciences Inc., priority 2022, published 2025).

System: rat elevated zero maze model of anxiety
Assay: Rat elevated zero maze model of anxiety (% time on open areas, stretched attend postures)
Format: in vivo, Sprague-Dawley rats
Description: The rat zero-maze model is a refined alternative to the plus-maze, the most widely used animal model of anxiety, and consists of an elevated annular platform, divided equally into four quadrants. Two opposite quadrants are enclosed by Perspex walls on both the inner and the outer edges of the platform, while the remaining two opposite quadrants are open being enclosed only by a Perspex “lip”. Animals will show a preference for the closed areas, and avoidance of the open sections is assumed to stem from a rodent's natural aversion to open, exposed spaces. The primary index of anxiety, which reflect changes in open arm preference, is the percentage of time spent on the open areas. A reduction in the amount of activity on the open areas is considered to reflect an increase in anxiety. Other, ethologically-based behaviours are also assessed as indices of anxiety. One of the most important is stretched attend postures (SAP) from closed to open quadrants. […] Shepherd, J K; et al., (1994) Behavioural and pharmacological validation of the elevated “zero-maze” as an animal model of anxiety. Psychopharmacol., 116:56-64.
Male Sprague-Dawley 200-250 g (Envigo UK) rats were used. Animals were group-housed (5 per cage; cage size: 40×40×20 cm) in a temperature-controlled environment (22±2° C.), under a 12 h light-dark cycle (lights on: 08:00 hours) for one week prior to testing. Food and water were freely available. Number of animals per group=5. Animals were moved into the experimental room 16-24 hours before testing.
The elevated 0-maze comprises a black Perspex annular platform (105 cm diameter, 10 cm width) elevated to 65 cm above ground level, divided equally into four quadrants. Two opposite quadrants are enclosed by clear red Perspex walls (27 cm high) on both the inner and outer edges of the platform, while the remaining two opposite quadrants are surrounded only by a Perspex “lip” (1 cm high) which serves as a tactile guide to animals on these open areas.
Subjects were weighed and tail marked before being injected. After a specified pre-treatment time, subjects were placed in a closed quadrant and a 5-min test period were recorded on videotape for subsequent analysis. The maze were cleaned with 5% methanol/water solution and dried thoroughly between test sessions. Behavioural measures comprise percentage time spent on the open areas (% TO) and frequency of stretched attend postures (SAP) from closed to open quadrants. Since the control groups were all treated identically with the same vehicle these were combined to increase power. The Chlordiazepoxide groups were also treated identically with the same dose so these were also combined to increase power. Animals are scored as being in the open area when all four paws were in an open quadrant and in the closed area only when all four paws have passed over the open-closed divide. All testing were carried out between 9.00 and 16.00 hours.
For each study, a 1-way ANOVA was conducted across vehicle, CDP, and drug treatment groups. Each group was compared to the vehicle group and a p-value for treatment determined by Fishers Least Significant Difference (LSD) test. This analysis was performed in GraphPad Prism (Version 9).
Intraperitoneal (IP): Racemic methylone HCl was formulated in Vehicle 1 (Saline) for injection to concentrations of 1, 3 and 6 mg/mL to provide doses of 5, 15 and 30 mg/kg when administered ip in 5 mL/kg dosing volumes.
Intraperitoneal (IP): S-methylone HCl was formulated in Vehicle 1 (Saline) for injection to concentrations of 0.5, 1, 1.5, 3 and 6 mg/mL to provide doses of 2.5, 5, 7.5, 15 and 30 mg/kg when administered ip in 5 mL/kg dosing volumes.
Intraperitoneal (IP): R-methylone HCl was formulated in Vehicle 1 (Saline) for injection to concentrations of 1, 3 and 6 mg/mL to provide doses of 5, 15 and 30 mg/kg when administered ip in 5 mL/kg dosing volumes. […]

[1] = 30 mg/kg ip, 30 min pretreatment, vs vehicle and chlordiazepoxide 6 mg/kg, male SD rats
[2] = specific (sufficient) doses ip, compared with chlordiazepoxide 6 mg/kg

CNC(C)C(=O)c1ccc2c(c1)OCO2 (racemic) [racemic methylone]
time spent in the open arms (5 mg/kg ip, 30 min pretreatment, vs vehicle, male SD rats): decrease in time spent in the open arms vs placebo
frequency of SAPs (15 mg/kg ip, 30 min pretreatment, male SD rats): dose dependent decrease in SAPs
time spent in the open arms (15 mg/kg ip, 30 min pretreatment, vs vehicle, male SD rats): no difference from placebo
frequency of SAPs [1]: decrease in SAPs
time spent in the open arms [1]: significant decrease in time spent in the open arms
anxiogenic effect (across the doses tested, ip, male SD rats): show anxiogenic effects at lower doses
frequency of SAPs [2]: decreased the frequency of SAPs as effectively as the benzodiazepine chlordiazepoxide
time in the open arms [2]: increase time in the open arms
